Experiment: gradient 5% acetonitrile 3 min, to 50% in 2 min, to 85% in 15 min, held 3 min, 100 µL/min
Conditions: column: Zorbax Extend-C18 2.1 x 50 mm; eluents: water / acetonitrile, 0.1% formic acid
Outline: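 Mixtures of ~100 pure standards were chromatographed on a Zorbax Extend-C18 column (2.1 × 50 mm, 1.8 μm) at 100 μL/min using water and acetonitrile, each with 0.1% formic acid. Detection used a quadrupole time-of-flight mass spectrometer in positive and negative ionization mode, and data collection spanned 3 months. Retention time was obtained from adduct peaks picked computationally and each checked manually.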

CCCn1cc(C2=CCN(C(=O)Nc3ccc(C)c(C)c3)CC2)c2cccnc21
RP-LC retention time: 1010 s

O=C(CN1CC=C(c2cnn(-c3ccc(F)cc3)c2)CC1)NCC1CCCO1 (stereo not given)
RP-LC retention time: 628 s

CCCn1cnc2ccc(-c3noc(-c4cccc(F)c4)n3)cc21
RP-LC retention time: 873 s

Cc1ccc(CNC(=O)C2CCCN(c3nnc(C)c4c(C)n(-c5ccc(Cl)cc5)nc34)C2)cc1 (stereo not given)
RP-LC retention time: 784 s

O=C(NCc1ccc(F)c(Cl)c1)C1=C2CCCN2c2ccc(F)cc2S1(=O)=O
RP-LC retention time: 934 s

COc1ccc(OC)c(NC(=O)CN2CCc3[nH]c4c(C)cc(F)cc4c(=O)c3C2)c1
RP-LC retention time: 640 s

CCCCn1cc(S(=O)(=O)NCc2ccccc2F)c2cccnc21
RP-LC retention time: 754 s

O=C(NCc1ccnc(N2CCSCC2)c1)Nc1ccccc1Cl
RP-LC retention time: 643 s

Cc1ccc(NC(=O)c2cnc3c(c2)c(=O)n(C)c(=O)n3-c2ccccc2)c(F)c1
RP-LC retention time: 887 s

CCn1cc(CCN2CCC(C(=O)Nc3ccccc3C)CC2)c2cccnc21
RP-LC retention time: 621 s

O=C(Nc1ccccc1F)[C@@H]1COCC(=O)N1Cc1cccs1
RP-LC retention time: 741 s

Cn1ncc2c3ccccc3n(CC(=O)NCCN3CCCCC3)c2c1=O
RP-LC retention time: 595 s

C=CCn1ccn(-c2ccc(F)c(Cl)c2)c(=O)c1=O
RP-LC retention time: 652 s

CCc1nc2c(c(=O)n1CC(=O)Nc1ccc(C(C)C)cc1)CN(Cc1ccccc1)CC2
RP-LC retention time: 753 s

COc1cccc(OC)c1C(=O)Nc1nc(-c2ccc3c(c2)NC(=O)CO3)c(C)s1
RP-LC retention time: 785 s

COc1cc2c(cc1OC)C(COc1ccc(F)cc1)N(C(=O)C(C)(C)C)CC2 (stereo not given)
RP-LC retention time: 998 s

Cc1ccccc1NC(=O)N1CCCC(Cn2c(C3CC3)nc3cccnc32)C1 (stereo not given)
RP-LC retention time: 656 s

CCOC(=O)c1nc(NCCc2ccccc2Cl)c2c(C)noc2n1
RP-LC retention time: 904 s

C=CCN1C(=O)COc2ccc(-c3csc(NC(=O)c4ccc(C)cc4)n3)cc21
RP-LC retention time: 1050 s

COc1ccc(OCc2nc(-c3ccc(N4CCCCC4)nc3)no2)cc1
RP-LC retention time: 1010 s

CCc1nnc2cc(N3CCN(Cc4ccc(OC(C)C)cc4)CC3)cnn12
RP-LC retention time: 545 s

Fc1ccc(OCc2nc(-c3ccc4c(c3)ncn4CCN3CCCCC3)no2)cc1
RP-LC retention time: 654 s

O=C(c1cc(F)cc(F)c1)N1CCN(c2cc(-c3ccc(F)cc3)[nH]n2)CC1
RP-LC retention time: 837 s

COC(=O)C1=C(CN2CCN(C)CC2)NC(=O)NC1c1ccccc1Cl (stereo not given)
RP-LC retention time: 597 s

COC(=O)C1C(=O)C2=C(CC1C)NC(C)=C(C(=O)OCCOC(C)C)C2c1cccc(F)c1 (stereo not given)
RP-LC retention time: 961 s

Cc1ccc2oc(C(=O)NCCc3cccs3)cc2n1
RP-LC retention time: 640 s

Cc1ccc(-c2nc(C(=O)N(C)C)c3n2CCCCC3)cc1
RP-LC retention time: 640 s

Cn1nc(CNC(=O)c2cccs2)c2ccccc21
RP-LC retention time: 764 s

CCn1cc(CCNS(=O)(=O)c2cccc(C#N)c2)c2cccnc21
RP-LC retention time: 733 s

COc1ccc(C)c2sc(NS(=O)(=O)c3ccc(C)cc3)nc12
RP-LC retention time: 870 s

COc1ccc2[nH]cc(CCn3ccc4c(nnc5ccnn54)c3=O)c2c1
RP-LC retention time: 686 s

CCN(C(=O)Cn1cnc2nc3c(cc2c1=O)CCCC3)c1cccc(Cl)c1
RP-LC retention time: 850 s

COc1ccc2c(c1)C1(CCN(S(=O)(=O)c3ccc(C#N)cc3)C1)C(=O)N2 (stereo not given)
RP-LC retention time: 797 s

O=c1n(Cc2ccc(F)cc2)nc2c(S(=O)(=O)N3CCCCCC3)cccn12
RP-LC retention time: 956 s

Cc1c(Cl)cccc1NC(=O)C1CCCN(c2ccc(-n3cccn3)nn2)C1 (stereo not given)
RP-LC retention time: 784 s

Cc1ccc2[nH]cc(CCNC(=O)C3CCN(c4ccc(N5CCCCC5)nn4)CC3)c2c1
RP-LC retention time: 685 s

CN1CCCc2cc(C(=O)NCc3ccccc3F)sc21
RP-LC retention time: 915 s

CC(NC(=O)CN1C(=O)CCn2nc(-c3cn(C)c4ccccc34)cc21)c1ccc2c(c1)OCCO2 (stereo not given)
RP-LC retention time: 797 s

Cc1cc(C)n(CC2CCN(C(=O)c3cc4ccccc4[nH]3)CC2)n1
RP-LC retention time: 717 s

COc1ccc(NC(=O)C2CCN(c3cncnc3N3CCCCC3)CC2)cc1
RP-LC retention time: 670 s

Cc1ccc(C)c(NC(=O)C2CCN(S(=O)(=O)c3cn(C(C)C)cn3)CC2)c1
RP-LC retention time: 767 s

CN(C)CCCn1c2c3ccccc3ccc2c2oc(=O)c3ccccc3c21
RP-LC retention time: 802 s

COC(=O)c1ccc(NC(=O)c2sc(-c3cn(C(C)C)c4ncccc34)nc2C)cc1
RP-LC retention time: 1090 s

O=C1CCc2cc(S(=O)(=O)N3CCN(c4ccc(F)cc4)CC3)cc3c2N1CCC3
RP-LC retention time: 966 s

COC(=O)CC(NC(=O)N1CCCn2nc(-c3cccnc3)cc2C1)c1ccccc1 (stereo not given)
RP-LC retention time: 596 s

O=C(CC1CCN(C(=O)Nc2ccc(Br)cc2F)CC1)N1CCCCC1
RP-LC retention time: 835 s

Cc1nc2cc(-c3noc(CNC(=O)c4cccs4)n3)ccc2o1
RP-LC retention time: 747 s

CC(C)Oc1ccc(CN2CCn3c(nn(CC4CC4)c3=O)C2)cc1
RP-LC retention time: 761 s

CCOC(=O)C(C)c1c(C(=O)c2ccc(C)nc2)c2ccccc2n1C (stereo not given)
RP-LC retention time: 1020 s

CC(NC(=O)C1CCCN(c2cnc3nccnc3c2)C1)c1cccnc1 (stereo not given)
RP-LC retention time: 598 s

C=CCn1c(=O)c2ccccc2n(Cc2nc(-c3ccc(OCC)c(OC)c3)no2)c1=O
RP-LC retention time: 682 s

O=C(NC1CCN(Cc2ccccc2)CC1)C1CCN(c2ncnc3c2oc2ccccc23)CC1
RP-LC retention time: 603 s

O=C(NCC(c1cccnc1)c1c[nH]c2ccccc12)Nc1ccc(F)cc1F (stereo not given)
RP-LC retention time: 674 s

Cc1nnc2sc(SCc3ccc([N+](=O)[O-])cc3)nn2c1=O
RP-LC retention time: 697 s

COc1ccc(N2C=C(C(=O)N3CCOCC3)S(=O)(=O)c3ccccc32)cc1OC
RP-LC retention time: 695 s

Cc1ccc(S(=O)(=O)N(C)c2ccccc2)s1
RP-LC retention time: 901 s

COc1cc(-c2nc(Cn3ccn4nc(-c5ccc(F)cc5)cc4c3=O)c(C)o2)cc(OC)c1OC
RP-LC retention time: 996 s

CCCCCNC(=O)c1sccc1S(=O)(=O)N(C)c1ccc(OCC)cc1
RP-LC retention time: 1190 s

CCN(CC)CCNC(=O)c1c(-c2ccccc2)c(-c2ccccc2)nn(C)c1=O
RP-LC retention time: 646 s

Cc1cc(C(=O)N2CCC3(CC2)NCc2ccccc2-n2ccnc23)nn1C
RP-LC retention time: 576 s

O=C(Cn1nc2c(Oc3ccc(Cl)cc3)nccn2c1=O)NCc1ccco1
RP-LC retention time: 804 s

CCCCc1cc(=O)oc2cc(C)cc(OCC(=O)N3CCC4(O)CCCCC4C3)c12 (stereo not given)
RP-LC retention time: 933 s

Cc1nc(CC(=O)N2CCC(C(N)=O)CC2)cs1
RP-LC retention time: 646 s

CN(C)c1cccc(-c2nn3c(-c4ccc5ccccc5n4)nnc3s2)c1
RP-LC retention time: 1070 s

Cc1cc(C2CCCN2C(=O)Nc2cc(Cl)ccc2C)no1 (stereo not given)
RP-LC retention time: 893 s

Cc1cnc(C(=O)N2CCCC(c3nnc4n3CCN(C(=O)C3CC3)C4)C2)cn1 (stereo not given)
RP-LC retention time: 584 s

O=C(C1=CN(c2ccc3c(c2)CCC3)c2ccccc2S1(=O)=O)N1CCOCC1
RP-LC retention time: 850 s

CC1Cc2ccccc2N1Cc1nnc(-c2ccccc2)o1 (stereo not given)
RP-LC retention time: 972 s

Cc1c(CCOC(=O)c2ccc([N+](=O)[O-])cc2)sc[n+]1Cc1ccccc1
RP-LC retention time: 909 s

CN(CC1(C)CCOCC1)C(=O)CCc1c[nH]c2ccccc12
RP-LC retention time: 772 s

CCn1cc(-c2ccncc2)cc1C(=O)NCc1cccc(Br)c1
RP-LC retention time: 705 s

Clc1ccccc1-c1nc2ccccc2[nH]1
RP-LC retention time: 663 s

CN1CCc2nnc(C3CCN(C(=O)Nc4ccc(Cl)cc4C(F)(F)F)C3)n2CC1 (stereo not given)
RP-LC retention time: 610 s

Cc1cccc(CN2CCCn3nc(C(=O)NCCCN4CCOCC4)cc3C2=O)c1
RP-LC retention time: 567 s

COc1ccc(NC(=O)N2CCN(c3nc4ccccc4n3C)CC2)cc1OC
RP-LC retention time: 610 s

COc1cccc(C(=O)CSc2ccc(NC(=O)C3CC3)nn2)c1
RP-LC retention time: 797 s

CCOC(=O)c1c(C)[nH]c(CCC(=O)NCCOC)c1C
RP-LC retention time: 668 s

Cc1ccc(C)c(NC(=O)c2cc(C)n3nccc3n2)c1
RP-LC retention time: 1030 s

CC(C)c1c(C(=O)O)nnn1Cc1ccc(Cl)cc1
RP-LC retention time: 788 s

COc1ccccc1C(=O)Oc1ccc(N(C)C2=NS(=O)(=O)c3ccccc32)cc1
RP-LC retention time: 910 s

COc1ccc(NC(=O)N2CC=C(c3cn(C(C)C)c4ncccc34)CC2)cc1F
RP-LC retention time: 920 s

O=C(CCc1nc2ccccc2n(CC(=O)NC2CCc3ccccc32)c1=O)NC1CCCCC1 (stereo not given)
RP-LC retention time: 879 s

Cc1nn(-c2ccccc2)c(C)c1S(=O)(=O)N1CCC(C(=O)Nc2ccccc2Cl)CC1
RP-LC retention time: 995 s

CCc1nc2c(=O)n(CC(=O)N3CCN(c4ccccc4)CC3)nc(C)c2s1
RP-LC retention time: 765 s

CCn1c(=O)c(N2CCCC(C(=O)N3CCN(c4ccc(F)cc4)CC3)C2)nc2ccccc21 (stereo not given)
RP-LC retention time: 1090 s

O=C(Cc1ccsc1)N1CCC2(CC1)N=C(c1ccccc1)NO2
RP-LC retention time: 774 s

CC(NC(=O)C1CCN(c2cnc3nccnc3c2)CC1)c1ccccc1 (stereo not given)
RP-LC retention time: 705 s

Cc1cnc(C2CN(Cc3cccc(F)c3)C2)n1CC1CC1
RP-LC retention time: 554 s

COc1cc(CN2CC(N(Cc3ccncc3)S(C)(=O)=O)C2)cc(OC)c1
RP-LC retention time: 568 s

CN(c1ccc(F)cc1)S(=O)(=O)N1CCCC(C(=O)N2CCN(c3ncccn3)CC2)C1 (stereo not given)
RP-LC retention time: 864 s

Reference: the METLIN SMRT retention time set (Domingo-Almenara et al. 2019)
